From patent publication US7612064B2, “Sulfopyrroles” (Takeda Pharmaceutical Company Limited, priority 2003, dated 2009) come the findings set out here.

One assay deals with HeLa. Put plainly: MTS proliferation assay. It counts as cell-based, human. To be noted: 72 h. The protocol: (§1) The assay is performed in 96 well tissue culture plates. […] The test compounds are added in 20 μl complete medium containing max 5% DMSO. The final compound concentrations in the assays are 10 μM, 3 μM, 1 μM and 0.3 μM, respectively. The assay plates are incubated for 72 h at culture conditions. The MTS reagent is prepared according to the manufacturer's protocol (Promega G1111). 20 μl MTS reagent are added to each well, the assay plates are quickly spun and incubated for another 3 h at culture conditions. Subsequently, the plates are shortly shacked and absorption measured with a microplate-reader at 492 nm.

Assay [1] can be described thus: Hoechst 33342 nuclear staining.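 On all read-outs here: apoptotic nuclei scored 0 none 1 weak under 50% of cells 2 strong over 50% of cells.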 In kind it is cell-based. To be noted: for Hoechst 33342 nuclear staining score, HeLa: HeLa cells; for Hoechst 33342 nuclear staining score, Jurkat: Jurkat cells; for Hoechst 33342 nuclear staining score, H460: H460 cells; for Hoechst 33342 nuclear staining score, Jily: Jily cells; for Hoechst 33342 nuclear staining score, MRC5: MRC5 cells. The method, then: This assay is performed in 96 well tissue culture plates. Appropriate number of cells (adherent cells: 3-5*10^3, suspension cells: 8-10*10^3) are being seeded out in 80 μl complete medium. Adherent cells are incubated for 24 h for proper spreading out before addition of test compounds while suspension cells are immediately treated with test compounds after seeding out. The test compounds are added in 20 μl complete medium containing max 5% DMSO. […] […] The assay plates are then further incubated for 30 min and subsequently analyzed with a standard inverted fluorescence microscope.
The readout allows the determination of the fraction of apoptotic nuclei as well as other morphological criteria specific for apoptosis as a function of the treatment. The following scores are used: 0 relating to no activity, 1 relating to weak activity comprising less than 50% of the cells and score 2 relating to strong activity comprising more than 50% of the cells.

In another assay the test system is MRC5. Put plainly: MTS proliferation assay. In kind it is cell-based. The settings on record: MRC5, 72 h. The method, then: as §1
The mark [2] stands for this setting: conc 0.1 (final concentrations in μM), 24 h or 48 h incubation.
Setting [3] is: conc 0.3 (final concentrations in μM), 24 h or 48 h incubation.
The mark [4] stands for this setting: conc 1 (final concentrations in μM), 24 h or 48 h incubation.
Where [5] appears, read: conc 3 (final concentrations in μM), 24 h or 48 h incubation.
The mark [6] stands for this setting: conc 10 (final concentrations in μM), 24 h or 48 h incubation.

As to `Cc1ccc(S(=O)(=O)n2cc(CNCCCc3ccccc3)cc2-c2ccc3c(c2)OCO3)cc1` [Example 10], the half-maximal inhibitory concentration (IC50) in the assay with HeLa and with MRC5 was more than 1000 nM throughout. Also, the “Hoechst 33342 nuclear staining score, HeLa” value in assay [1] (setting [2]), in assay [1] (setting [3]), in assay [1] (setting [4]) and in assay [1] (setting [5]) was 0 in each case. In addition, the “Hoechst 33342 nuclear staining score, Jurkat” value in assay [1] (setting [2]), in assay [1] (setting [3]), in assay [1] (setting [4]) and in assay [1] (setting [5]) was 0 in each case.

As for `Cc1ccc(S(=O)(=O)n2cc(CNCCCN(C)C)cc2-c2ccc3c(c2)OCO3)cc1.Cl.Cl` [2 × 2HCl], the “Hoechst 33342 nuclear staining score, HeLa” value in assay [1] (setting [2]), in assay [1] (setting [3]), in assay [1] (setting [4]) and in assay [1] (setting [5]) was 0 in each case. Besides, the “Hoechst 33342 nuclear staining score, Jurkat” value in assay [1] (setting [2]), in assay [1] (setting [3]), in assay [1] (setting [4]) and in assay [1] (setting [5]) was 0 each time.

With `CCN(Cc1cc(-c2cccs2)n(S(=O)(=O)c2ccc(C)cc2)c1)c1ccc(OC)cc1OC` [Example 1, 4(N-2,4-Dimethoxyphenyl-N-ethylaminomethyl)-2-(2-thienyl)-1-(p-toluene-sulfonyl)-pyrrole], the IC50 with HeLa and in the assay on MRC5 was more than 1000 nM in each case.

On to `Cc1ccc(S(=O)(=O)n2cc(CNCCCN(C)C)cc2-c2ccc3c(c2)OCO3)cc1` [Example 2, 4-(N-[3-Dimethylaminopropyl]-aminomethyl)-2-(3,4-methylenedioxyphenyl)-1-(p-toluenesulfonyl)-pyrrole], for which the IC50 in the assay on HeLa (Homo sapiens) and in the assay with MRC5 (Homo sapiens) was more than 1000 nM in each case. Besides, the “Hoechst 33342 nuclear staining score, HeLa” value in assay [1] (setting [2]), in assay [1] (setting [3]), in assay [1] (setting [4]) and in assay [1] (setting [5]) was 0 throughout. For the same compound, the “Hoechst 33342 nuclear staining score, Jurkat” value in assay [1] (setting [2]), in assay [1] (setting [3]), in assay [1] (setting [4]) and in assay [1] (setting [5]) was 0 in each case.

Turning to `Cc1ccc(S(=O)(=O)n2cc(CNc3ccccn3)cc2-c2ccc3c(c2)OCO3)cc1` [Example 44], the IC50 in the assay on HeLa and in the assay with MRC5 was more than 1000 nM throughout. Besides, the “Hoechst 33342 nuclear staining score, HeLa” value in assay [1] (setting [3]) is reported as 0; in assay [1] (setting [4]), 0; in assay [1] (setting [5]) it was 0; in assay [1] (setting [6]), 2 (strong activity comprising more than 50% of the cells). The “Hoechst 33342 nuclear staining score, Jurkat” value is 0 in assay [1] (setting [3]), 0 in assay [1] (setting [4]), 0 in assay [1] (setting [5]) and 2 (strong activity comprising more than 50% of the cells) in assay [1] (setting [6]).

Compound `COc1cc(-c2cc(-c3cncc(CN(C)C)c3)cn2S(=O)(=O)c2ccc(C)cc2)cc(OC)c1OC` [Example 59] had a half-maximal inhibitory concentration (IC50) in the assay on HeLa of more than 1000 nM. In assay [1] (conc 0.1), the “Hoechst 33342 nuclear staining score, H460” value is 0; the “Hoechst 33342 nuclear staining score, HeLa” value is listed as 0; the “Hoechst 33342 nuclear staining score, Jily” value was 0; the “Hoechst 33342 nuclear staining score, Jurkat” value is on record as 0. In assay [1] (conc 0.1), the “Hoechst 33342 nuclear staining score, MRC5” value stood at 0 and the “Hoechst 33342 nuclear staining score, PBLs” value is given as 0. For the same compound, in assay [1] (conc 0.3), the “Hoechst 33342 nuclear staining score, H460” value worked out at 0; the “Hoechst 33342 nuclear staining score, HeLa” value is 0; the “Hoechst 33342 nuclear staining score, Jily” value is reported as 0; the “Hoechst 33342 nuclear staining score, Jurkat” value came to 0. In assay [1] (conc 0.3), the “Hoechst 33342 nuclear staining score, MRC5” value amounted to 0 and the “Hoechst 33342 nuclear staining score, PBLs” value is on record as 0. Also, in assay [1] (conc 1), the “Hoechst 33342 nuclear staining score, H460” value turned out to be 0; the “Hoechst 33342 nuclear staining score, HeLa” value is 0; the “Hoechst 33342 nuclear staining score, Jily” value was found to be 0; the “Hoechst 33342 nuclear staining score, Jurkat” value was found to be 0. Besides, in assay [1] (conc 1), the “Hoechst 33342 nuclear staining score, MRC5” value stood at 0 and the “Hoechst 33342 nuclear staining score, PBLs” value stood at 0. Further, in assay [1] (conc 3), the “Hoechst 33342 nuclear staining score, H460” value is recorded as 2 (strong activity comprising more than 50% of the cells); the “Hoechst 33342 nuclear staining score, HeLa” value came out at 0; the “Hoechst 33342 nuclear staining score, Jily” value is on record as 0; the “Hoechst 33342 nuclear staining score, Jurkat” value was 2 (strong activity comprising more than 50% of the cells). In assay [1] (conc 3), the “Hoechst 33342 nuclear staining score, MRC5” value came to 0 and the “Hoechst 33342 nuclear staining score, PBLs” value was found to be 0. In the assay on MRC5, this compound came in with an IC50 of more than 1000 nM.

`Cc1ccc(S(=O)(=O)n2cc(CNc3ccc(S(N)(=O)=O)cc3)cc2-c2ccc3c(c2)OCO3)cc1` [Example 45]: the IC50 in the assay with HeLa and in the assay with MRC5 was more than 1000 nM throughout. Besides, the “Hoechst 33342 nuclear staining score, HeLa” value in assay [1] (setting [3]) is given as 0; in assay [1] (setting [4]) it was 0; in assay [1] (setting [5]) it was 0; in assay [1] (setting [6]), 1 (weak activity comprising less than 50% of the cells). Further, the “Hoechst 33342 nuclear staining score, Jurkat” value in assay [1] (setting [3]) is 0; in assay [1] (setting [4]), 0; in assay [1] (setting [5]) it was 0; in assay [1] (setting [6]), 2 (strong activity comprising more than 50% of the cells).

`Cc1ccc(S(=O)(=O)n2cc(CNCCc3ccccc3)cc2-c2cccs2)cc1` [Example 7] displayed an IC50 in the assay on HeLa of more than 1000 nM. For the same compound, the “Hoechst 33342 nuclear staining score, HeLa” value in assay [1] (setting [2]), in assay [1] (setting [3]), in assay [1] (setting [4]) and in assay [1] (setting [5]) was 0 in each case. The “Hoechst 33342 nuclear staining score, Jurkat” value in assay [1] (setting [2]), in assay [1] (setting [3]), in assay [1] (setting [4]) and in assay [1] (setting [5]) was 0 throughout.

In the case of `COc1ccc(CCNCc2cc(-c3ccc4c(c3)OCO4)n(S(=O)(=O)c3ccc(C)cc3)c2)cc1` [Example 11], the IC50 with HeLa is more than 1000 nM. In addition, the “Hoechst 33342 nuclear staining score, HeLa” value in assay [1] (setting [2]), in assay [1] (setting [3]), in assay [1] (setting [4]) and in assay [1] (setting [5]) was 0 each time. For the same compound, the “Hoechst 33342 nuclear staining score, Jurkat” value in assay [1] (setting [2]), in assay [1] (setting [3]), in assay [1] (setting [4]) and in assay [1] (setting [5]) was 0 each time.

For `Cc1ccc(S(=O)(=O)n2cc(CNCCCN3CCN(C)CC3)cc2-c2ccc3c(c2)OCO3)cc1.Cl.Cl` [Example 13], the “Hoechst 33342 nuclear staining score, HeLa” value in assay [1] (setting [2]), in assay [1] (setting [3]), in assay [1] (setting [4]) and in assay [1] (setting [5]) was 0 throughout. The “Hoechst 33342 nuclear staining score, Jurkat” value in assay [1] (setting [2]), in assay [1] (setting [3]), in assay [1] (setting [4]) and in assay [1] (setting [5]) was 0 in each case.

In the case of `Cc1ccc(S(=O)(=O)n2cc(CNc3ccc(N4CCOCC4)cc3)cc2-c2cccs2)cc1` [Example 9], the IC50 with HeLa is more than 1000 nM. Besides, the “Hoechst 33342 nuclear staining score, HeLa” value in assay [1] (setting [2]) is 0; in assay [1] (setting [3]), 0; in assay [1] (setting [4]) it was 0; in assay [1] (setting [5]), 1 (weak activity comprising less than 50% of the cells). Moreover, the “Hoechst 33342 nuclear staining score, Jurkat” value in assay [1] (setting [2]) was 0; in assay [1] (setting [3]), 0; in assay [1] (setting [4]) it was 0; in assay [1] (setting [5]), 2 (strong activity comprising more than 50% of the cells).
